According to ChEMBL document CHEMBL1158325, “Norditerpenoids and diterpenoids from Salvia multicaulis with antituberculous activity” (1997):
In brackets after ≈: the same amount, converted by molar mass. Activity calls are given as the source filed them. The rule behind the calls is not given here.

Key:
Assay type in all cases: functional
Proteus mirabilis [1] = test: Antibacterial activity against Proteus mirabilis ATCC 14153 by disk diffusion method
Streptococcus [2] = test: Antibacterial activity against beta-haemolyticus Streptococcus isolate by disk diffusion method
Pseudomonas aeruginosa [3] = test: Antibacterial activity against Pseudomonas aeruginosa ATCC 9027 by tube dilution method
Klebsiella pneumoniae [4] = test: Antibacterial activity against Klebsiella pneumoniae ATCC 4352 by tube dilution method
Enterococcus faecalis [5] = test: Antibacterial activity against Enterococcus faecalis ATCC 29212 by disk diffusion method
Staphylococcus aureus [6] = test: Antibacterial activity against Staphylococcus aureus ATCC 6538 by disk diffusion method
Escherichia coli [7] = test: Antibacterial activity against Escherichia coli ATCC 8739 by disk diffusion method
Klebsiella pneumoniae [8] = test: Antibacterial activity against Klebsiella pneumoniae ATCC 4352 by disk diffusion method
Streptococcus [9] = test: Antibacterial activity against beta-haemolyticus Streptococcus isolate by tube dilution method
[10] = system: Mycobacterium tuberculosis; test: Antitubercular activity against Mycobacterium tuberculosis H37Rv after 21 days by broth microdilution method; conditions: 504 h
Pseudomonas aeruginosa [11] = test: Antibacterial activity against Pseudomonas aeruginosa ATCC 9027 by disk diffusion method
Escherichia coli [12] = test: Antibacterial activity against Escherichia coli ATCC 8739 by tube dilution method
Proteus mirabilis [13] = test: Antibacterial activity against Proteus mirabilis ATCC 14153 by tube dilution method
Staphylococcus aureus [14] = test: Antibacterial activity against Staphylococcus aureus ATCC 6538 by tube dilution method
Enterococcus faecalis [15] = test: Antibacterial activity against Enterococcus faecalis ATCC 29212 by tube dilution method

Cc1ccc2c(ccc3cc(C(C)C)c(O)cc32)c1C
Activity (Proteus mirabilis [1]): inactive
inhibition zone (IZ) (Streptococcus [2]): >7 mm
MIC (Pseudomonas aeruginosa [3]): 15.6 µg/mL (≈ 59 µM)
MIC (Klebsiella pneumoniae [4]): 15.6 µg/mL (≈ 59 µM)
Activity (Enterococcus faecalis [5]): inactive
Activity (Staphylococcus aureus [6]): inactive
Activity (Escherichia coli [7]): inactive
inhibition zone (IZ) (Klebsiella pneumoniae [8]): >7 mm
MIC (Streptococcus [9]): 2 µg/mL (≈ 7.57 µM)
MIC [10]: 0.46 µg/mL (≈ 1.74 µM)
inhibition zone (IZ) (Pseudomonas aeruginosa [11]): >7 mm

COC1=C(C(C)C)C(=O)C2=C(C1=O)[C@@]1(C)CCCC(C)(C)C1=C[C@H]2O
MIC [10]: 1.2 µg/mL (≈ 3.48 µM)

COC1=C(C(C)C)C(=O)C2=C(C1=O)[C@@]1(C)CCCC(C)(C)C1=C[C@H]2OC(C)=O
Activity (Proteus mirabilis [1]): inactive
Activity (Streptococcus [2]): inactive
MIC (Klebsiella pneumoniae [4]): 7.2 µg/mL (≈ 18.6 µM)
Activity (Enterococcus faecalis [5]): inactive
Activity (Staphylococcus aureus [6]): inactive
Activity (Escherichia coli [7]): inactive
inhibition zone (IZ) (Klebsiella pneumoniae [8]): >7 mm
MIC [10]: 0.89 µg/mL (≈ 2.3 µM)
Activity (Pseudomonas aeruginosa [11]): inactive

Nc1ccc(C(=O)O)c(O)c1 [AMINOSALICYLIC ACID]
MIC [10]: 5 µg/mL (≈ 32.7 µM)

Cc1c(O)cc2c3c(ccc2c1C)C=C(C(C)C)C(=O)C3=O [DEMETHYLMULTIORTHOQUINONE]
Activity (Proteus mirabilis [1]): inactive
Activity (Streptococcus [2]): inactive
MIC (Escherichia coli [12]): 4.6 µg/mL (≈ 15.6 µM)
Activity (Enterococcus faecalis [5]): inactive
Activity (Staphylococcus aureus [6]): inactive
inhibition zone (IZ) (Escherichia coli [7]): >7 mm
Activity (Klebsiella pneumoniae [8]): inactive
MIC [10]: 1.2 µg/mL (≈ 4.08 µM)
Activity (Pseudomonas aeruginosa [11]): inactive

CC[C@@H](CO)NCCN[C@@H](CC)CO [ETHAMBUTOL]
MIC [10]: 5 µg/mL (≈ 24.5 µM)

CCc1cc(C(N)=S)ccn1 [ETHIONAMIDE]
MIC [10]: 5 µg/mL (≈ 30.1 µM)

NNC(=O)c1ccncc1 [ISONIAZID]
MIC [10]: 0.2 µg/mL (≈ 1.46 µM)

NC[C@H]1O[C@H](O[C@H]2[C@H](O)[C@@H](O[C@H]3O[C@H](CO)[C@@H](O)[C@H](N)[C@H]3O)[C@H](N)C[C@@H]2N)[C@H](O)[C@@H](O)[C@@H]1O [KANAMYCIN]
MIC [10]: 5 µg/mL (≈ 10.3 µM)

COc1cc2c(ccc3c(C)c(C)ccc32)cc1C(C)C [MULTICAULIN]
inhibition zone (IZ) (Proteus mirabilis [1]): >7 mm
inhibition zone (IZ) (Streptococcus [2]): >7 mm
MIC (Escherichia coli [12]): 0.7 µg/mL (≈ 2.51 µM)
MIC (Proteus mirabilis [13]): 1.4 µg/mL (≈ 5.03 µM)
Activity (Enterococcus faecalis [5]): inactive
inhibition zone (IZ) (Staphylococcus aureus [6]): >7 mm
MIC (Staphylococcus aureus [14]): 0.2 µg/mL (≈ 0.718 µM)
inhibition zone (IZ) (Escherichia coli [7]): >7 mm
Activity (Klebsiella pneumoniae [8]): inactive
MIC (Streptococcus [9]): 0.2 µg/mL (≈ 0.718 µM)
MIC [10]: 5.6 µg/mL (≈ 20.1 µM)
Activity (Pseudomonas aeruginosa [11]): inactive

COc1cc2c3c(ccc2c(C)c1C)C=C(C(C)C)C(=O)C3=O [MULTIORTHOQUINONE]
Activity (Proteus mirabilis [1]): inactive
MIC (Enterococcus faecalis [15]): 2 µg/mL (≈ 6.49 µM)
inhibition zone (IZ) (Streptococcus [2]): >7 mm
MIC (Pseudomonas aeruginosa [3]): 0.5 µg/mL (≈ 1.62 µM)
inhibition zone (IZ) (Enterococcus faecalis [5]): >7 mm
inhibition zone (IZ) (Staphylococcus aureus [6]): >7 mm
MIC (Staphylococcus aureus [14]): 0.1 µg/mL (≈ 0.324 µM)
Activity (Escherichia coli [7]): inactive
Activity (Klebsiella pneumoniae [8]): inactive
MIC (Streptococcus [9]): 0.1 µg/mL (≈ 0.324 µM)
MIC [10]: 2 µg/mL (≈ 6.49 µM)
inhibition zone (IZ) (Pseudomonas aeruginosa [11]): >7 mm

CO[C@H]1/C=C/O[C@@]2(C)Oc3c(C)c(O)c4c(O)c(c(/C=N/N5CCN(C)CC5)c(O)c4c3C2=O)NC(=O)/C(C)=C\C=C\[C@H](C)[C@H](O)[C@@H](C)[C@@H](O)[C@@H](C)[C@H](OC(C)=O)[C@@H]1C [RIFAMPIN]
MIC [10]: 0.5 µg/mL (≈ 0.608 µM)

C=C[C@]1(C)C=C2[C@@H](O)C[C@H]3C(C)(C)C(=O)CC[C@]3(C)[C@]2(O)C(=O)C1 [SALVIPIMARONE]
inhibition zone (IZ) (Proteus mirabilis [1]): >7 mm
MIC (Enterococcus faecalis [15]): 3.6 µg/mL (≈ 10.8 µM)
Activity (Streptococcus [2]): inactive
MIC (Proteus mirabilis [13]): 3.6 µg/mL (≈ 10.8 µM)
Activity (Enterococcus faecalis [5]): inactive
Activity (Staphylococcus aureus [6]): inactive
Activity (Escherichia coli [7]): inactive
Activity (Klebsiella pneumoniae [8]): inactive
MIC [10]: 7.3 µg/mL (≈ 22 µM)
Activity (Pseudomonas aeruginosa [11]): inactive

CN[C@@H]1[C@H](O[C@H]2[C@H](O[C@H]3[C@H](O)[C@@H](O)[C@H](N=C(N)N)[C@@H](O)[C@@H]3N=C(N)N)O[C@@H](C)[C@]2(O)C=O)O[C@@H](CO)[C@H](O)[C@H]1O [STREPTOMYCIN]
MIC [10]: 2 µg/mL (≈ 3.44 µM)
